Patent US6372957B1, “Transgenic mouse comprising a MEF2 binding site operatively linked to an indicator gene and methods of use” (Board of Regents, The University of Texas System, priority 1998, dated 2002)

Assays:
[1] = test system: GAL4-MEF2C fusion protein; assay: pG5E1b-luciferase (Gal-luc) reporter with GAL-MEF2C (complete open reading frame) in cardiomyocytes; type: cell-based, rat; conditions: for block of activation of GAL-MEF2C by PE: cardiomyocytes stimulated with PE
Experimental: FIG. 12A, FIG. 12B and FIG. 12C. CaM kinase and MAP kinase target different domains of MEF2. Primary neonatal rat cardiomyocytes in serum-free medium were transiently transfected with the indicated expression plasmids and luciferase activity was determined in cell extracts. FIG. 12A, cells were stimulated with PE (10 uM) or 10% FBS, as indicated, and expression of the MEF2-dependent reporter, 3×MEF2-luciferase, was assayed. FIG. 12B, cells transiently transfected with pG5E1b-luciferase (Gal-luc) and GAL-MEF2C were stimulated with PE, as in FIG. 12A, in the presence of KN62 or SB202190, as indicated. FIG. 12C, cells were transiently transfected with pG5E1b-luciferase and GAL-MEF2C (left panel) or GAL-MEF2C-ΔN (right panel) along with activated CaMKIV and MKK6, as indicated.

[2] = test system: MEF2; assay: 3×MEF2-luciferase MEF2-dependent reporter in transiently transfected primary neonatal rat cardiomyocytes; type: cell-based
Description: To determine whether MEF2 was a target for hypertrophic signaling in cardiomyocytes, the inventors tested whether hypertrophy in response to phenylephrine (PE) and fetal bovine serum (FBS) activated a MEF2-dependent reporter (3×MEF2-luciferase), containing three MEF2 binding sites.

[3] = test system: GAL4-MEF2C fusion protein; assay: GAL4-dependent reporter with GAL4 fused to the C-terminus of MEF2C (transcription activation domains) in cardiomyocytes; type: cell-based; conditions: stimulation of cardiomyocytes
Description: FIG. 6. Phenylephrine induces MEF2C transcriptional activity through a CaMK-dependent pathway. Cardiomyocytes were transiently transfected with expression vectors encoding GAL4-MEF2C and a GAL4-dependent reporter gene in the presence and absence of PE and the CaMK inhibitor KN-93.
In light of the ability of MEF2 to respond to calcium-dependent signal transduction pathways in T cells, the inventors have investigated whether the same pathways also activate MEF2 in cardiomyocytes. […] When the C-terminus of MEF2C, which contains the transcription activation domains (TADs), but lacks the MADS and MEF2 domains required for DNA binding and dimerization, is fused to the DNA binding domain of the yeast transcription factor GAL4, the resulting GAL4-MEF2C fusion protein retains sensitivity to calcineurin and CaMKIV (FIG. 5). This GAL4-MEF2C fusion protein is also activated by stimulation of cardiomyocytes with the hypertrophic agonist phenylephrine (PE) (FIG. 6).

[4] = test system: MEF2; assay: MEF2 DNA binding activity in stimulated cardiomyocytes; type: cell-based, rat; conditions: cardiomyocytes stimulated with PE or FBS

block of activation of GAL-MEF2C by PE [1] | activation of MEF2-dependent reporter (3×MEF2-luciferase) ([2]; primary neonatal rat cardiomyocytes, serum-free medium, PE 10 uM or 10% FBS) | activity of GAL4-MEF2C fusion protein (complete open reading frame of MEF2C) ([1]; cardiomyocytes, PE or FBS) | amount of MEF2 DNA binding activity [4] | SMILES | activation of a reporter containing a mutant MEF2 site ([2]; cardiomyocytes, PE or FBS) | activation of GAL4-MEF2C fusion protein (C-terminus of MEF2C) [3]
partially blocked | – | – | – | Oc1ccc(-c2nc(-c3ccncc3)c(-c3ccc(F)cc3)[nH]2)cc1 [SB202190] | – | –
partially blocked | – | – | – | CN([C@@H](Cc1ccc(OS(=O)(=O)c2cccc3cnccc23)cc1)C(=O)N1CCN(c2ccccc2)CC1)S(=O)(=O)c1cccc2cnccc12 [KN62] | – | –
– | stimulated the MEF2 reporter | stimulated activity | unchanged | CNC[C@H](O)c1cccc(O)c1 [PE, phenylephrine] | not a reporter containing a mutant MEF2 site | activated
